# From patent publication US20260335314A1, “CRYSTALLINE SALTS OR AMORPHOUS FORMS OF 2-((1H-PYRAZOL-3-YL)METHYL)-6-((6-AMINOPYRIDIN-2-YL)METHYL)-4-METHYL-4,6-DIHYDRO -5H-THIAZOLO[5',4':4,5]PYRROLO[2,3-D]PYRIDAZIN-5-ONE” (Agios Pharmaceuticals, Inc., priority 2023, published 2026)
# Experiments:
# [1] = Pharmacokinetics / absolute bioavailability in male Sprague Dawley rats; type: in vivo; settings: oral gavage, 10 mg/kg
# Protocol: Twenty-one (21) male Sprague Dawley rats (purchased from Shanghai Laboratory Animal Center Co., Ltd., Shanghai, China) were randomized into 7 groups (3 animals per group). The animals fasted overnight, the forms of Compound 1 shown in Table 7 were administered by oral gavage, and the animals were fed 4 hours post-dose.
# Blood was serially collected from each animal at 0 (pre-dose), 0.083, 0.25, 0.5, 1, 2, 4, 8, and 24 h post-dose. For each collection, the animal was restrained manually, and approximately 150 μL of blood sample was collected via the tail vein into K2EDTA tubes. Plasma samples were stored at approximately −70° C. until analysis.
# To enable the calculation of absolute bioavailability, Compound 1 was formulated as a solution in 10% N-methyl-2-pyrrolidone, 10% Solutol HS 15, and 80% saline and administered at 1 mg/kg as intravenous (IV) bolus dose to a separate group of male Sprague Dawley rats, and blood samples were collected at similar timepoints to those shown above. Further, plasma samples were obtained from the collected samples and stored at approximately −70° C. until analysis.
# The concentration of Compound 1 in the plasma samples was determined by LC-MS/MS analysis.
# A 20 μL aliquot of each plasma sample was mixed with 200 μL of acetonitrile containing glipizide as an internal standard (40 ng/mL). The resulting mixture was vortexed at 1500 rpm for 2 min and centrifuged at 5800 rpm for 10 min. A 1 μL sample from the supernatant was injected into LC-MS/MS.
# LC-MS/MS analysis was conducted on a UPLC/MS-MS (API 6500+) system under the conditions outlined in Table 8
# The absolute bioavailability of each form of Compound 1 was determined by dividing the AUCinf of the form in question by the AUCinf obtained historical data by IV administration of Compound 1.
# pH solubility in buffers = type: physicochemical; settings: for pH (24 h): pH of solution at 24 h
# Protocol: (§1) Solubility samples were prepared by weighing about 10 mg of each salt and adding 1 mL of media and vortexed briefly to obtain suspensions. […] For such instances, the solubility is calculated as greater than (>).
# (§2) The sample vials were capped and wrapped in aluminum foil, and placed on a shaker at 37° C. The shaker was set at about 100 rpm and vials were removed at specified time points. The vials were observed, and the supernatants were transferred to Eppendorf tubes and centrifuged at 3K for 10 minutes. The clear supernatants were transferred to HPLC vials. The samples were diluted prior to HPLC analysis using the dilution media by 2× or used without dilution. pH was measured of the 24 hour timepoint after centrifugation using a micro pH probe.
# (§3) • pH 2 buffer USP: Mixed 50 mL of 0.2M potassium chloride and 13 mL 0.2M HCl, diluted to 200 mL with water. • pH 4.5 buffer USP: 5.44 g of potassium dihydrogen phosphate was diluted to 1000 mL with water. • pH 6.8 buffer USP: Mixed 50 mL of 0.2M potassium phosphate and 22.4 mL 0.2M sodium hydroxide. Diluted with water to 200 mL. • SGF: 2.0109 g of NaCl was dissolved in water, added 7 mL of conc. HCl and diluted to 1 L. • FeSSIF: 4.0321 g of NaOH and 11.8726 g of NaCl were dissolved in water, added 8.65 mL of glacial acetic acid, adjusted the pH to 5.0 and diluted to 1 L. • FaSSIF: 0.4247 g of NaOH, 3.9548 g of sodium phosphate monobasic monohydrate and 6.1900 g of NaCl were dissolved in water, adjusted the pH to 6.5 and diluted to 1 L.
# At each time point, the solution was analyzed by HPLC and residue was vacuum dried and analyzed by XRPD. The pH of the solution was measured at 24 hours.
# [2] = Kinetic solubility in biorelevant media; type: physicochemical; settings: for solubility at 10 min / solubility at 0.5 h / solubility at 1 h / solubility at 2 h / solubility at 4 h / solubility at 24 h: 37 °C; for solubility at 0.5 h: 30 min
# Protocol: as §1, §2
# as §3, with “adjusted the pH to 5.0 and diluted to 1 L. • FaSSIF:” left out
# Kinetic solubility was determined in biorelevant media. At each time point, the solution was analyzed by HPLC. The solid residue was analyzed by XRPD at selected time points. The pH of the solution was measured at 24 hours.
# [3] = Dynamic vapor sorption (moisture uptake); type: physicochemical; settings: 25° C., from 5% to 95% relative humidity
# Protocol: Dynamic Vapor Sorption (DVS) was carried out using a TA Instruments Q5000 Dynamic Vapor Sorption analyzer. The instrument was calibrated with standard weights and a sodium bromide standard for humidity. Approximately 10-25 mg of sample was loaded into a metal-coated quartz pan for analysis. […] The movement from one step to the next occurred either after satisfying the equilibrium criterion of 0.01% weight change or, if the equilibrium criterion was not met, after one hour. The percent weight change values were calculated using Microsoft Excel®.
# [4] = ph 2 buffer (usp), pH 2, pH 2 (USP), 37 °C
# [5] = ph 4.5 buffer (usp), pH 4.5, pH 4.5 (USP), 37 °C
# [6] = ph 6.8 buffer (usp), pH 6.8, pH 6.8 (USP), 37 °C
# [7] = fassif, pH 5, FaSSIF pH 5.0 (so in the source)
# [8] = fessif, pH 6.5, FeSSIF pH 6.5 (so in the source)
smiles,measurement,setting,value
Cn1c2nc(Cc3cc[nH]n3)sc2c2cnn(Cc3cccc(N)n3)c(=O)c21.O=C(O)C(O)C(O)C(=O)O (racemic) [Form C],"absolute bioavailability, comparison with other forms",[1],higher than the measured bioavailability of the other forms of Compound 1
same,bioavailability,"[1]; rat, plasma, po, vs historical IV AUCinf, read-out: Absolute % F",91%
same,AUC(0-inf),"[1]; rat, plasma, po, fasted overnight",14200 ng·h/mL
same,dissolution in 0.1N HCl,pH solubility in buffers; 0.1N HCl,dissolved instantly
same,pH (24 h),pH solubility in buffers; 0.1 N HCl,1.27
same,solubility,"pH solubility in buffers; 0.1 n hcl, 37 °C, dissolved instantly, estimated by adding 100 uL aliquots, read-out: solubility",> 10900 µg/mL
same,"pH solubility, overall",pH solubility in buffers; buffers pH 1 to pH 6.8,highest solubility
same,pH (24 h),pH solubility in buffers; pH 2 (USP),2.52
same,pH (24 h),pH solubility in buffers; pH 4.5 (USP),3.92
same,pH (24 h),pH solubility in buffers; pH 6.8 (USP),3.54
same,solubility at 2 h,pH solubility in buffers; [4],3810 µg/mL
same,solubility at 24 h,pH solubility in buffers; [4],2460 µg/mL
same,solubility at 2 h,pH solubility in buffers; [5],150 µg/mL
same,solubility at 24 h,pH solubility in buffers; [5],120 µg/mL
same,solubility at 2 h,pH solubility in buffers; [6],370 µg/mL
same,solubility at 24 h,pH solubility in buffers; [6],330 µg/mL
same,pH (24 h),"[2]; FaSSIF pH 5.0 (so in the source), pH of solution at 24 h",4.60
same,pH (24 h),"[2]; FeSSIF pH 6.5 (so in the source), pH of solution at 24 h",3.35
same,pH (24 h),"[2]; SGF pH 1.2, pH of solution at 24 h",1.13
same,"kinetic solubility, overall",[2]; all media tested,highest solubility in all media tested
same,solubility at 10 min,[2]; [7],650 µg/mL
same,solubility at 0.5 h,[2]; [7],310 µg/mL
same,solubility at 1 h,[2]; [7],250 µg/mL
same,solubility at 2 h,[2]; [7],200 µg/mL
same,solubility at 4 h,[2]; [7],100 µg/mL
same,solubility at 24 h,[2]; [7],120 µg/mL
same,solubility at 10 min,[2]; [8],530 µg/mL
same,solubility at 0.5 h,[2]; [8],860 µg/mL
same,solubility at 1 h,[2]; [8],910 µg/mL
same,solubility at 2 h,[2]; [8],990 µg/mL
same,solubility at 4 h,[2]; [8],810 µg/mL
same,solubility at 24 h,[2]; [8],20 µg/mL
same,solubility,"[2]; sgf, pH 1.2, SGF pH 1.2, 37 °C, dissolved instantly, from total volume of media added, read-out: solubility",> 11100 µg/mL
same,dissolution in SGF,[2]; simulated gastric fluid (SGF),dissolved instantly
same,moisture uptake (DVS),[3],about 0.06%
